Experimental findings from ChEMBL document CHEMBL3044813, “Bloodbrain barrier permeability and transport studies of JLK1486: a new antiglioblastoma drug” (Med Chem Res, 2012) are described below.

The source made the active and inactive calls. No cut-off for these calls is given here.

One data set has as its system Blood brain barrier. The experiment in a line: Permeability across blood brain barrier of Rattus norvegicus Sprague-Dawley (rat) at 10 mg/kg, iv. As to conditions: in vivo. In kind it is ADME, organism-based. Also noted: dose 10 mg/kg, route intravenous.
For another data set, the system named is Glioma. The experiment in a line: Antitumor activity against Homo sapiens (human) Glioma cells xenografted in transgenic mouse assessed as mouse survival. Format: functional, cell-based. For orientation: Xenograft models place foreign cells or tissue in a host animal.
The target of data set [1] is T1, ATP-dependent translocase ABCB1 (Homo sapiens, UniProt P08183). Briefly: Inhibition of Progesterone-induced P-gp ATPase activity (unknown origin) at 1 uM by spectrophotometry (reference value: 61.5 nmol/mg/min).
T1 sequence (P08183 whole entry): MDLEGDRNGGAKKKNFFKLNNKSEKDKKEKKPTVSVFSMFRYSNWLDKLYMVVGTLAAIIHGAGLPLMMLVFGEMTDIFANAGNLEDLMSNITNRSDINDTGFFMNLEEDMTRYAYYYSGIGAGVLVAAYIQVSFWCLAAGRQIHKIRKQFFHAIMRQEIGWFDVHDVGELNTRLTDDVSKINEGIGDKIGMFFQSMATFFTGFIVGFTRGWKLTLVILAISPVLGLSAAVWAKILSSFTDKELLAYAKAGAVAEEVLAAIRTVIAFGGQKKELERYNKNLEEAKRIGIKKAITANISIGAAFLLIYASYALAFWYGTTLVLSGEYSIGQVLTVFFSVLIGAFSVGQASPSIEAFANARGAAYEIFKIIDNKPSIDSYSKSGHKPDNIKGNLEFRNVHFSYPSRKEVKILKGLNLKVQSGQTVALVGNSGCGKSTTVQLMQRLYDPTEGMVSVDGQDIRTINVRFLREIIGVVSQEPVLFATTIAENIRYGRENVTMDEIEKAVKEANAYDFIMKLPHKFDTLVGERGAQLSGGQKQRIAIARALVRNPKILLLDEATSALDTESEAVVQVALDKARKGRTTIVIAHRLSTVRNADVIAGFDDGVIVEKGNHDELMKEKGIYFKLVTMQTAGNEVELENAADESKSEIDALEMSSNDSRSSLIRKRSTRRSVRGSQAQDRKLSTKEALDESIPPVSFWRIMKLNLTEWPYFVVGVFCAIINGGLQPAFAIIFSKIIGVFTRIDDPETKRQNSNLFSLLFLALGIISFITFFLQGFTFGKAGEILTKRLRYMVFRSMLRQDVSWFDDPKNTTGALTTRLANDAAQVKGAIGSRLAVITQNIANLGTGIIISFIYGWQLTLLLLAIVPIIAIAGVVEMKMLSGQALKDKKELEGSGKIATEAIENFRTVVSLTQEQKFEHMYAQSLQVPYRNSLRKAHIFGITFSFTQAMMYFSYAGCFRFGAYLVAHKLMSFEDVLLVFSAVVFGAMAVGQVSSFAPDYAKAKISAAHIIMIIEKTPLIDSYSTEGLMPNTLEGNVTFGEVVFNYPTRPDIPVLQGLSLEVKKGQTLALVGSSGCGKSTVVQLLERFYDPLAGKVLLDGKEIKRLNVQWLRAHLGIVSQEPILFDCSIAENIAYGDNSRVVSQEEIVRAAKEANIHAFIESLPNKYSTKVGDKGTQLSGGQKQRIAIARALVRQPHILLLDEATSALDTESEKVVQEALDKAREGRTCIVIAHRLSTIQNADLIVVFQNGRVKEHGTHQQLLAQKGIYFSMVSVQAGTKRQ
Data set [2] has as its target T1, ATP-dependent translocase ABCB1. Briefly: Inhibition of Progesterone-induced P-gp ATPase activity (unknown origin) at 10 uM by spectrophotometry (reference value: 61.5 nmol/mg/min).
The next data set has as its system Cerebrospinal fluid. The experiment in a line: Drug uptake in Rattus norvegicus Sprague-Dawley (rat) CSF at 10 mg/kg, iv after 1 hr by HPLC analysis. Format: ADME, organism-based. Also on record: dose 10 mg/kg, route intravenous. To be noted: in vivo.
Data set [3] concerns the target T1, ATP-dependent translocase ABCB1. Briefly: Inhibition of Verapamil-induced P-gp ATPase activity (unknown origin) at 1 uM by spectrophotometry (reference value: 90.7 nmol/mg/min).
The next data set concerns Brain. The experiment in a line: Drug uptake in Rattus norvegicus Sprague-Dawley (rat) brain at 10 mg/kg, iv by HPLC analysis. Also on record: dose 10 mg/kg, route intravenous. To be noted: in vivo. Format: ADME, organism-based.
For data set [4], the target named is T1, ATP-dependent translocase ABCB1. Briefly: Inhibition of Vinblastine-induced P-gp ATPase activity (unknown origin) at 10 uM by spectrophotometry (reference value: 42.8 nmol/mg/min).
The target is the same in data set [5]. The experiment in a line: Inhibition of Verapamil-induced P-gp ATPase activity (unknown origin) at 10 uM by spectrophotometry (reference value: 90.7 nmol/mg/min).
Data set [6] shares this target. Briefly: Inhibition of Vinblastine-induced P-gp ATPase activity (unknown origin) at 1 uM by spectrophotometry (reference value: 42.8 nmol/mg/min).
Data set [7] has the same target. The experiment in a line: Modulation of P-gp ATPase activity (unknown origin) at 10 uM by spectrophotometry (RvB = 30.2 nmol/mg/min).
The target is the same in data set [8]. The experiment in a line: Modulation of P-gp ATPase activity (unknown origin) at 1 uM by spectrophotometry (RvB = 30.2 nmol/mg/min).

As to `Cn1nnc2c(C(N)=O)ncn2c1=O` [TEMOZOLOMIDE], the pBBB in the data set with Blood brain barrier was found to be 2.7 ×10⁻³ cm/s. Also, the result in the data set with Glioma was Active.
`Oc1ccc(CN(Cc2ccc(C(F)(F)F)cc2)Cc2ccc(O)c3ncccc23)c2cccnc12`: the Activity in [1] was 54.8 nmol/mg/min; in [2], 51.8 nmol/mg/min; in data set [3], 84.5 nmol/mg/min; in data set [4], 30.8 nmol/mg/min; in [5] it was 77.1 nmol/mg/min; in [6] it was 34.3 nmol/mg/min. Further, the Activity came to 33.1 nmol/mg/min in [7] and 31.3 nmol/mg/min in data set [8]. For the same compound, the Drug uptake in the data set with Cerebrospinal fluid was determined as 0.037%; in the data set with Brain, 2.2%. Also, in the data set on Glioma, the outcome was Active.
